Test systems include EKVX NSCLC; OVCAR-5 ovarian; RPMI-8226 leukemia; SF-268 CNS; DU-145 prostate; SNB-19 CNS; M14 melanoma; NCI-H460 lung; OVCAR-4 ovarian; U251 CNS.
Assay in all cases: growth of human tumour cells (NCI), 48 h

The structures appear in SMILES notation.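 Each compound was tested at five concentrations against cells in 96-well plates for 48 hours. TGI denotes the concentration required for complete inhibition of growth.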

Take `O=[N+]([O-])c1cc2oc(CSc3ccccc3)nc2cc1Cl`: the TGI in the assay on EKVX NSCLC, with OVCAR-5 ovarian, with RPMI-8226 leukemia, with SF-268 CNS, with DU-145 prostate and with SNB-19 CNS was above 100 µM throughout. Besides, the TGI in the assay with M14 melanoma was above 100 µM; in the assay on NCI-H460 lung it was 81.2 µM; with OVCAR-4 ovarian, above 100 µM; in the assay with U251 CNS, 66.6 µM.

With `CC1OC(O[C@H]2C3C=CO[C@@H](OC4OC(CO)C(O)C(O)C4O)C3[C@@]3(COC(=O)/C=C/c4ccccc4)O[C@@H]23)C(O)C(O)C1O` (stereo not given in full), the TGI with EKVX NSCLC, in the assay on OVCAR-5 ovarian, in the assay with RPMI-8226 leukemia, with SF-268 CNS, in the assay on DU-145 prostate and in the assay on SNB-19 CNS was above 100 µM throughout. For the same molecule, the TGI in the assay on M14 melanoma, in the assay on NCI-H460 lung, in the assay with OVCAR-4 ovarian and in the assay with U251 CNS was above 100 µM throughout.

`COc1cc2c(cc1OCCCN1C(=O)c3cccc4cccc(c34)C1=O)N=C[C@@H]1CCCN1C2=O`: the TGI in the assay on EKVX NSCLC was above 100 µM; in the assay on OVCAR-5 ovarian, above 100 µM; in the assay on RPMI-8226 leukemia, above 50.2 µM; in the assay with SF-268 CNS, above 100 µM; with DU-145 prostate, above 100 µM; in the assay with SNB-19 CNS it was above 100 µM. For the same molecule, the TGI in the assay on M14 melanoma was above 100 µM; in the assay on NCI-H460 lung, above 100 µM; in the assay on OVCAR-4 ovarian, above 81.4 µM; in the assay with U251 CNS it was above 100 µM.

For the molecule `O=C1CSC2(CC(/C=C/c3cccs3)=NN2c2cccc(S(=O)(=O)O)c2)N1c1nc2ccccc2s1` (stereo not given), the TGI in the assay with EKVX NSCLC, with OVCAR-5 ovarian, in the assay on RPMI-8226 leukemia, in the assay with SF-268 CNS, in the assay on DU-145 prostate and in the assay on SNB-19 CNS was above 100 µM throughout. For the same molecule, the TGI in the assay on M14 melanoma, in the assay on NCI-H460 lung, in the assay on OVCAR-4 ovarian and in the assay on U251 CNS was above 100 µM each time.

Turning to `Cc1ccc2c(c1)c1ccc3c(c1n2C)C(=O)C=CC3=O`, the TGI in the assay with EKVX NSCLC is above 7.07 µM; in the assay on OVCAR-5 ovarian, above 10 µM; with RPMI-8226 leukemia it was 4.2 µM; with SF-268 CNS it was above 10 µM; in the assay on DU-145 prostate, above 10 µM; in the assay on SNB-19 CNS, above 10 µM. The TGI in the assay with M14 melanoma is 4.54 µM; with NCI-H460 lung it was above 10 µM; in the assay on OVCAR-4 ovarian it was above 5.56 µM; with U251 CNS it was above 10 µM.

For `N#Cc1sc2c(c1OC(=O)c1ccc(C(F)(F)F)cc1)c(=O)n(-c1ccccc1)c(=S)n2-c1ccccc1`, the TGI in the assay with EKVX NSCLC was 70.9 µM; in the assay on OVCAR-5 ovarian, above 100 µM; with RPMI-8226 leukemia, 45.9 µM; in the assay with SF-268 CNS, above 100 µM; with DU-145 prostate, above 100 µM; in the assay with SNB-19 CNS it was above 100 µM. Besides, the TGI with M14 melanoma was 81.7 µM; in the assay on NCI-H460 lung, above 100 µM; in the assay on OVCAR-4 ovarian, above 100 µM; in the assay with U251 CNS it was 97 µM.

As to `O=C(CCSC1=NCCCN1)c1ccc(F)cc1`, the TGI was found to be 27.5 µM in the assay with EKVX NSCLC; 29.9 µM in the assay with OVCAR-5 ovarian; 14.8 µM with RPMI-8226 leukemia; 67.1 µM with SF-268 CNS; 36 µM with DU-145 prostate; 42.7 µM in the assay with SNB-19 CNS. Also, the TGI in the assay with M14 melanoma is 32.4 µM; in the assay with NCI-H460 lung, 47.7 µM; in the assay with OVCAR-4 ovarian it was above 100 µM; with U251 CNS, 44.8 µM.

In the case of `Cc1nc2ccccc2c(-n2cccn2)c1CCn1cccn1`, the TGI in the assay with EKVX NSCLC, in the assay on OVCAR-5 ovarian, in the assay on RPMI-8226 leukemia, in the assay with SF-268 CNS, in the assay with DU-145 prostate and with SNB-19 CNS was above 100 µM throughout. The TGI with M14 melanoma, with NCI-H460 lung, in the assay on OVCAR-4 ovarian and in the assay on U251 CNS was above 100 µM each time.

For `Cc1cc(N(C)C)c2ccccc2[n+]1CCCCCCCCCC[n+]1c(C)cc(N(C)C)c2ccccc21`, the TGI worked out at 35.3 µM in the assay on EKVX NSCLC; 15.6 µM in the assay on OVCAR-5 ovarian; 4.33 µM in the assay on RPMI-8226 leukemia; 33.3 µM in the assay on SF-268 CNS; 16.2 µM in the assay with DU-145 prostate; 8.19 µM in the assay on SNB-19 CNS. Further, the TGI came out at 12 µM with M14 melanoma, 13 µM in the assay with NCI-H460 lung, 22.2 µM in the assay with OVCAR-4 ovarian and 11.5 µM in the assay on U251 CNS.

Regarding `Nc1ncnc2c1ccn2C/C=C/CO`, the TGI with EKVX NSCLC, in the assay on OVCAR-5 ovarian, in the assay with RPMI-8226 leukemia, with SF-268 CNS, in the assay on DU-145 prostate and with SNB-19 CNS was above 100 µM in each case. Also, the TGI in the assay with M14 melanoma, with NCI-H460 lung, in the assay on OVCAR-4 ovarian and in the assay with U251 CNS was above 100 µM each time.

With `CCOC(=O)c1c2cccccc-2nc1Nc1cccc2c(C)ccnc12`, the TGI in the assay with EKVX NSCLC, with OVCAR-5 ovarian, in the assay on RPMI-8226 leukemia, in the assay on SF-268 CNS, in the assay on DU-145 prostate and with SNB-19 CNS was above 10 µM in each case. Also, the TGI in the assay with M14 melanoma, in the assay with NCI-H460 lung, in the assay with OVCAR-4 ovarian and in the assay with U251 CNS was above 10 µM throughout.

In the case of `COc1cc(Nc2ccc3c(c2)CCC3)nc(OC)n1`, the TGI is above 100 µM in the assay on EKVX NSCLC; above 100 µM in the assay on OVCAR-5 ovarian; 40.9 µM in the assay on RPMI-8226 leukemia; above 100 µM in the assay on SF-268 CNS; above 100 µM in the assay on DU-145 prostate; above 100 µM with SNB-19 CNS. Moreover, the TGI in the assay with M14 melanoma, in the assay with NCI-H460 lung, in the assay on OVCAR-4 ovarian and with U251 CNS was above 100 µM throughout.

For the molecule `CO/N=C(/C(=O)OC)c1ccccc1COc1ccccc1C(F)(F)F`, the TGI in the assay with EKVX NSCLC is 62.9 µM; with OVCAR-5 ovarian it was above 100 µM; with RPMI-8226 leukemia it was 50.3 µM; in the assay on SF-268 CNS, above 100 µM; in the assay on DU-145 prostate, above 100 µM; in the assay on SNB-19 CNS, above 100 µM. The TGI with M14 melanoma was above 100 µM; with NCI-H460 lung, above 100 µM; with OVCAR-4 ovarian it was 57.9 µM; in the assay on U251 CNS, above 100 µM.

(Values after PubChem BioAssay (NCI).)
